Data on 2 compounds can be found in patent US8232067B2, “Disrupting FCRN-albumin interactions” (Brigham & Women's Hospital, Inc., priority 2009, dated 2012).

For one data set, the system named is Balb/c mice. Briefly: Mortality assay (1). The format is in vivo. Conditions: 12 mg of acetaminophen; mice deficient in FcRn compared to wild-type Balb/c mice. Here is the method:
Wild-type Balb/c mice and Balb/c mice deficient in FcRn were administered 12 mg of acetaminophen. The dose administered is equivalent to 42 g in a 70 kg human (84 tabs of 500 mg extra strength Tylenol™ (acetaminophen)).

Data set [1] can be described thus: Serum and bile measurements after tail vein infusion (ELISA). The format is in vivo. Conditions: FcRn deficient mice vs wild-type, 24 hours after infusion. Here is the method: Human IgG and rat albumin were administered via the tail vein to wild-type (WT) or FcRn deficient (−/−) mice 24 hours prior to the harvest of serum and bile. For serum and bile measurements, mice were euthanized before blood was removed via the heart and the bile was removed via the gallbladder. Concentration of IgG and albumin were measured by ELISA. Similar results were obtained from bile collected via common bile duct cannulation.
After 24 hours, blood/serum and gallbladder bile were removed as described in Example 1.

Take `CC(=O)Nc1ccc(O)cc1` [acetaminophen]: the mortality entry in the data set on Balb/c mice is “decreased mortality”.

As for “rat albumin: Rat serum albumin administered via the tail vein to mice”, the “levels of rat albumin in the bile” value in data set [1] is reported as “elevated levels”.
